Ends that are not written are not given here.
Tests used:
human term placenta [1] = test: Effect of dexamethasone and GnRH on prostanoid release from perifused human term placental explants; assay type: cell-based
Method: Medium 199 (x2) with Earles' Modified Salts, bicarbonate and L-glutamine without phenol red was purchased from Gibco (Chagrin Falls, Ohio). Penicillin, streptomycin, bovine serum albumin and Indomethacin were obtained from Sigma Chemicals (St. Louis, Mo.). Placental perifusion was performed essentially as described in Example 3.
Samples were stored at −20° C. until assayed for PGE, PGF, PGFM, Tx B2 or 6-keto-PGF1α. Recovery and stability of these prostanoids in this perifusion system and during storage were assessed by spiking the medium with prostanoids and perifusing it through empty chambers and collecting samples as described above. In addition, samples were frozen and thawed repeatedly and re-assayed. Prostanoid recovery and stability were nearly 100%. Thus, no data correction for procedural losses was done. Radioimmunoassays were performed as described in Example 1.
The perifusion system described at Examples 2 and 3 was used in the present study. […] It took one hour for the input medium to pass through the perifusion tubing and chamber and to be collected in the sample tube. Four replicated chambers were perifused with each of the three experimental media, while, in another four replicated chambers, the perifusion was continued with the control Medium 199.
Hormonal values for a given chamber were normalized to the fifth-hour prostanoid release for that chamber, expressed as a percent release over the fifth-hour release. […] Thus, the release of each chamber was related to functional competence at the time of treatment rather than to its mass.
The mean release for replicate chambers from a given placenta for each particular hormone in the presence of GnRH, dexamethasone, or GnRH and dexamethasone at each point was calculated. Similar calculations were done for the control chambers. The mean data for each treatment for the three different placentas were subjected to statistical analyses. Thus, the response for each placenta was weighed equally. Two-way analysis of variance was used to determine if there was significant main effect or interaction.
In addition, the cumulative release for each hormone from each placenta for each treatment was calculated. One-way analysis of variance was used to test for statistically significant effects of treatment. The points of significant variation were determined using Student-Newman-Keuls' test.

human term placenta [2] = test: Effect of enzyme inhibitors on prostanoid release from perifused human term placental explants (RIA); assay type: cell-based; conditions: indomethacin 50 μg/ml
Method: Radioimmunoassays were performed in a fashion similar to what has been previously described (Siler-Khodr et al., 1986, Biol. Reprod., 35:312) which is specifically incorporated herein for this purpose, with specific exception as noted below. A perifusion model (described in Examples 2 and 3) was employed to determine placental cell response. Media collected from the perifusion samples prepared from placental tissues were assayed. […] All the samples from a given perifusion (placenta) were determined in the same assay. At the beginning of the fifth hour of the perifusion, Medium 199 in the experimental chambers was changed to Medium 199 containing quinacrine (10 μM), EDTA (1 mM), NDGA (10 μM) or indomethacin (50 μg/ml). Four replicated chambers were perifused with control medium and each of the experimental media. This experimental design was repeated in three different perifusions using placental tissues from three different patients according to the procedure described in Example 3. […] Term placentas were obtained and placed on ice immediately after vaginal delivery from patients having spontaneous labor and delivery without any known obstetrical or medical complications. Tissues were obtained in accordance with a protocol approved by the Institutional Review Board. Within 30 minutes, the placental tissues were dissected of decidua, chorionic plates and large fetal vessels on ice. The placental tissues were cut into small fragments (approximately 25 pieces having a total weight of approximately 1 g), rinsed free of blood by repeated washing with ice cold normal saline until clear in color, and the tissue fragments placed in a 3-ml tissue chamber, placed in a 37° C. water bath. […] This medium is hereafter referred to as Medium 199. […] Perifusion was performed for two hours prior to initiation of sample collection. In this fashion, all tissues were thoroughly washed and equilibrated. Samples were collected hourly, beginning at the start of the third hour, into 12×75 mm glass tubes containing 0.1 ml indomethacin and 1100 μg/ml dimethyl sulfoxide [DMSO]. It took approximately one hour for the input medium to pass through the perifusion tubing and chamber and to be collected in the sample tube, thus the dead volume of the system was approximately 1 ml. Collection of the effluent of the 20 chambers was done simultaneously, using an ISCO fraction collector Retriever III adapted with a 20-tube rack and manifold. The prostanoid release for a given chamber was expressed as the increase over the fourth-hour prostanoid release for that chamber. Because there may be differences in the amounts of blood vessels and connective tissue among placental explants, the release expressed per unit weight results in high variance between chambers. […] Thus, the release of each chamber was related to its functional competence at the time of treatment rather than its mass. The mean release for replicate chambers from a given placenta for each particular prostanoid in the presence of arachidonic acid or each of the various enzyme inhibitors was calculated and then the mean data for each of the three different placentas was averaged at each time point. Thus, each placenta was weighted equally in the statistical analyses. Two-way analysis of variance of the average response for each prostanoid for each dose of arachidonic acid or each enzyme inhibitor studied, at each time point, was performed. The normalized data were tested for homogeneity using Cohrna's Q test, and no significant deviation was found. Thus, for each prostanoid and each treatment, where there was a significant main effect or interaction, Dunnett's comparison test was applied to determine the point(s) of significant difference as compared to the control. P<0.05 was considered to be statistically significant.

[3] = on the order of at least; cited from earlier work
[4] = seven hours of perifusion, dexamethasone 10^−8 M, GnRH 10^−7 M, compared to control

## C[C@@H]1C[C@H]2[C@@H]3CCC4=CC(=O)C=C[C@]4(C)[C@@]3(F)[C@@H](O)C[C@]2(C)[C@@]1(O)C(=O)CO [dexamethasone]
Human term placenta [1]; dexamethasone 10^−8 M, seventh hour of incubation
  release as percent of control: 68 % of its control release
Human term placenta [1]; seven hours of perifusion, dexamethasone 10^−8 M, GnRH 10^−7 M
  cumulative release of TxB2: 62%±6%
Human term placenta [1]; [4]
  cumulative release of 6-keto-PGF1α: 73%±7%
  cumulative release of PGE: 66%±4%
  cumulative release of PGF: 71%±4%

## GnRH: gonadotropin-releasing hormone (QHWSYGLRPG; ends and bridges not checked; UniProt P01148 24-33, looked up)
Human term placenta [1]; GnRH 10^−7 M, within the first hour, continued throughout perifusion
  effect on TxB2 release: inhibition

## COc1ccc2c(c1)c(CC(=O)O)c(C)n2C(=O)c1ccc(Cl)cc1 [indomethacin]
Human term placenta [2]; after seven hours of perifusion
  PGFM release: 51.8 % of the release from the control
Human term placenta [2]; after three hours of exposure
  PGFM release, effect: not inhibited
Human term placenta [2]; continued perifusion
  6-keto-PGF1α release: 26.3 % of the control
  PGE release: 24.0 % of the control
  PGF release: 9.6 % of the control
  TxB2 release: 30.5 % of the control
Human term placenta [2]; three hours post-exposure
  6-keto-PGF1α release: 41.3 % of control
  PGE release: 33.5 % of control
  PGF release: 22.1 % of control
  TxB2 release: 42.3 % of control
[3]
  molar concentration necessary to produce pharmacological affects: at least 10^−3 molar (M)

Source: US6461613B2, “Methods and compositions for the selective regulation of chorionic prostanoids” (priority 1993, dated 2002)
